{
  "source": "patent US10329476B2",
  "about": "“Non-regulated synthetic acid compositions for use as alternatives to conventional acids in the oil and gas industry” (FLUID ENERGY GROUP LTD., priority 2015, dated 2019)",
  "test_system": "human skin",
  "assay": "Dermal exposure test",
  "assay_type": "in vivo",
  "text": "The objective of this study was to evaluate the dermal irritancy and corrosiveness of the composition of Example 2, following a single application to human skin. To assess the safety upon spillage on human skin, a few drops of the synthetic acid according to a preferred embodiment of the present invention and a control composition (MSA—70%) were applied to the skin on the back of the hand of a test individual. The hands were not covered and remained exposed to the compositions for a period of up to one hour. The exposed skin was subsequently washed with soap and visual assessment of the exposed area was done 24 hours after the start of the exposure.",
  "data": [
    {"compound": "CS(=O)(=O)O", "note": "[MSA (70%), Methanesulfonic acid]", "values": [
      {"measurement": "Dermal exposure, skin observation", "setting": "24 hrs from exposure, after washing with soap", "value": "scab formation"},
      {"measurement": "Dermal exposure, skin observation", "setting": "back of hand, 0 hrs from exposure", "value": "immediate burning"},
      {"measurement": "Dermal exposure, skin observation", "setting": "back of hand, 1 hrs from exposure", "value": "red skin irritation with large blisters"},
      {"measurement": "Dermal exposure, skin observation", "setting": "back of hand, ½ hrs from exposure", "value": "small blisters"}
    ]}
  ]
}
